Measured values taken from patent US7897780B2, “Method for controlling phytopathogenic fungi using silylated carboxamides” (Bayer CropScience AG, priority 2004, dated 2011).

Tested on: not listed separately
Experiment: log P determination by HPLC on reversed-phase column (EEC Directive 79/831 Annex V.A8)
Format: physicochemical
Settings: reversed-phase C18 HPLC column, pH 2.3, C18, 43° C., 0.1% aqueous phosphoric acid/acetonitrile gradient
Experimental: The given log P values were determined in accordance with EEC Directive 79/831 Annex V.A8 by HPLC (High Performance Liquid Chromatography) on a reversed-phase column (C 18). Temperature: 43° C. Mobile phases for the determination in the acidic range (pH 2.3): 0.1% aqueous phosphoric acid, acetonitrile; linear gradient from 10% acetonitrile to 90% acetonitrile. Calibration was carried out using unbranched alkan-2-ones (having 3 to 16 carbon atoms) with known logP values (determination of the logP values by the retention times using linear interpolation between two successive alkanones). The lambda max values were determined in the maxima of the chromatographic signals using the UV spectra from 200 nm to 400 nm.

SMILES | chromatographic logP
C[Si](C)(C)CCc1sccc1N [Example (III-1), 2-(2-trimethylsilanylethyl)thiophen-3-ylamine] | 1.78
C[Si](C)(C)CCc1sccc1NC(=O)c1cccnc1Cl [Example 1, 2-chloro-N-{2-[2-(trimethylsilyl)ethyl]-3-thienyl}nicotinamide] | 3.65

Tested on: Podosphaera leucotricha
Experiment: Podosphaera test (apple)/protective
Format: in vivo
Settings: protective spray, application rate 100 g/ha, evaluation 10 days after inoculation
Experimental: (§1) To produce a suitable preparation of active compound, 1 part by weight of active compound is mixed with the stated amounts of solvents and emulsifier, and the concentrate is diluted with water to the desired concentration.
(§2) To test for protective activity, young plants are sprayed with the preparation of active compound at the stated application rate. After the spray coating has dried on, the plants are inoculated with an aqueous spore suspension of the apple mildew pathogen Podosphaera leucotricha. The plants are then placed in a greenhouse at about 23° C. and a relative atmospheric humidity of about 70%.
(§3) Evaluation is carried out 10 days after the inoculation. 0% means an efficacy which corresponds to that of the control, whereas an efficacy of 100% means that no infection is observed.

SMILES | Efficacy in %
Cc1nc(C(F)F)c(C(=O)Nc2ccsc2CC[Si](C)(C)C)s1 [drawing 73] | 100%
Cn1cc(C(=O)Nc2ccsc2CC[Si](C)(C)C)c(C(F)(F)F)c1 [drawing 77] | 99%
Cn1cc(C(=O)Nc2ccsc2CC[Si](C)(C)C)c(C(F)(F)F)n1 [drawing 74] | 100%
Cc1nn(C)c(F)c1C(=O)Nc1ccsc1CC[Si](C)(C)C [drawing 76] | 100%
Cn1cc(C(=O)Nc2ccsc2CC[Si](C)(C)C)c(C(F)F)n1 [drawing 75] | 100%

Tested on: Sphaerotheca fuliginea
Experiment: Sphaerotheca test (cucumber)/protective
Format: in vivo
Settings: protective spray, application rate 100 g/ha, evaluation 7 days after inoculation
Experimental: as §1
as §2, with “Sphaerotheca fuliginea.” for “the apple mildew pathogen Podosphaera leucotricha.”
Evaluation was carried out 7 days after the inoculation. 0% means an efficacy which corresponds to that of the control, whereas an efficacy of 100% means that no infection is observed.

SMILES | Efficacy in %
Cc1nn(C)c(F)c1C(=O)Nc1ccsc1CC[Si](C)(C)C [drawing 81] | 100%
Cn1cc(C(=O)Nc2ccsc2CC[Si](C)(C)C)c(C(F)F)n1 [drawing 80] | 100%
Cn1cc(C(=O)Nc2ccsc2CC[Si](C)(C)C)c(C(F)(F)F)n1 [drawing 79] | 100%
Cc1nc(C(F)F)c(C(=O)Nc2ccsc2CC[Si](C)(C)C)s1 [drawing 78] | 100%
Cn1cc(C(=O)Nc2ccsc2CC[Si](C)(C)C)c(I)n1 [drawing 83] | 98%
Cn1cc(C(=O)Nc2ccsc2CC[Si](C)(C)C)c(C(F)(F)F)c1 [drawing 82] | 100%

Tested on: Venturia inaequalis
Experiment: Venturia test (apple)/protective
Format: in vivo
Settings: protective spray, application rate 100 g/ha, evaluation 10 days after inoculation
Experimental: as §1
To test for protective activity, young plants are sprayed with the preparation of active compound at the stated application rate. After the spray coating has dried on, the plants are inoculated with an aqueous conidia suspension of the apple scab pathogen Venturia inaequalis and then remain in an incubation cabin at about 20° C. and 100% relative atmospheric humidity for 1 day.
The plants are then placed in a greenhouse at about 21° C. and a relative atmospheric humidity of about 90%.
as §3

SMILES | Efficacy in %
Cc1nn(C)c(F)c1C(=O)Nc1ccsc1CC[Si](C)(C)C [drawing 87] | 100%
Cn1cc(C(=O)Nc2ccsc2CC[Si](C)(C)C)c(C(F)(F)F)c1 [drawing 88] | 99%
Cn1cc(C(=O)Nc2ccsc2CC[Si](C)(C)C)c(I)n1 [drawing 89] | 100%
Cn1cc(C(=O)Nc2ccsc2CC[Si](C)(C)C)c(C(F)F)n1 [drawing 86] | 100%
Cc1nc(C(F)F)c(C(=O)Nc2ccsc2CC[Si](C)(C)C)s1 [drawing 84] | 100%
Cn1cc(C(=O)Nc2ccsc2CC[Si](C)(C)C)c(C(F)(F)F)n1 [drawing 85] | 100%

Tested on: Botrytis cinerea
Experiment: Botrytis test (bean)/protective
Format: in vivo
Settings: protective spray, application rate 500 g/ha, evaluation 2 days after inoculation
Experimental: as §1
To test for protective activity, young plants are sprayed with the preparation of active compound at the stated application rate. After the spray coating has dried on, 2 small pieces of agar colonized by Botrytis cinerea are placed onto each leaf. The inoculated plants are placed in a dark chamber at about 20° C. and 100% atmospheric humidity.
The size of the infected areas of the leaves is evaluated 2 days after the inoculation. 0% means an efficacy which corresponds to that of the control, whereas an efficacy of 100% means that no infection is observed.

SMILES | Efficacy in %
Cn1cc(C(=O)Nc2ccsc2CC[Si](C)(C)C)c(I)n1 [drawing 95] | 100%
Cn1cc(C(=O)Nc2ccsc2CC[Si](C)(C)C)c(C(F)(F)F)c1 [drawing 94] | 100%
Cn1cc(C(=O)Nc2ccsc2CC[Si](C)(C)C)c(C(F)F)n1 [drawing 92] | 100%
Cn1cc(C(=O)Nc2ccsc2CC[Si](C)(C)C)c(C(F)(F)F)n1 [drawing 91] | 100%
Cc1nn(C)c(F)c1C(=O)Nc1ccsc1CC[Si](C)(C)C [drawing 93] | 100%
Cc1nc(C(F)F)c(C(=O)Nc2ccsc2CC[Si](C)(C)C)s1 [drawing 90] | 100%

Tested on: Puccinia recondita
Experiment: Puccinia test (wheat)/protective
Format: in vivo
Settings: protective spray, application rate 500 g/ha, evaluation 10 days after inoculation
Experimental: To produce a suitable preparation of active compound, 1 part by weight of active compound is mixed with the stated amounts of solvent and emulsifier, and the concentrate is diluted with water to the desired concentration.
To test for protective activity, young plants are sprayed with the preparation of active compound at the stated application rate. After the spray coating has dried on, the plants are sprayed with a conidia suspension of Puccinia recondita. The plants remain in an incubation cabin at 20° C. and 100% relative atmospheric humidity for 48 hours.
The plants are then placed in a greenhouse at a temperature of about 20° C. and a relative atmospheric humidity of 80% to promote the development of rust pustules.
as §3

SMILES | Efficacy in %
Cn1cc(C(=O)Nc2ccsc2CC[Si](C)(C)C)c(C(F)F)n1 [drawing 98] | 100%
Cn1cc(C(=O)Nc2ccsc2CC[Si](C)(C)C)c(C(F)(F)F)n1 [drawing 97] | 100%
Cc1nn(C)c(F)c1C(=O)Nc1ccsc1CC[Si](C)(C)C [drawing 99] | 100%
Cc1nc(C(F)F)c(C(=O)Nc2ccsc2CC[Si](C)(C)C)s1 [drawing 96] | 100%

Tested on: Alternaria mali
Experiment: In vitro test for the ED50 determination in microorganisms
Format: cell-based
Settings: 50% inhibition of fungal growth, potato dextrose medium, 20° C., 3-5 days, photometric 620 nm, tested at 0.05, 0.5, 5 and 50 ppm
Experimental: A methanolic solution of the active compound to be tested, admixed with emulsifier PS16, is pipetted into the wells of a microtitre plate. After the solvent has evaporated, 200 μl of potato dextrose medium are added to each well. Beforehand, a suitable concentration of spores or mycelium of the fungus to be tested was added to the medium. The resulting concentrations of active compound are 0.05, 0.5, 5 and 50 ppm. The resulting concentration of the emulsifier is 300 ppm.
The plates are then incubated on a shaker at a temperature of 20° C. for 3-5 days, until sufficient growth can be observed in the untreated control.
Evaluation is carried out photometrically at a wavelength of 620 nm. The dose of active compound which causes 50% inhibition of fungal growth compared to the untreated control (ED50) is calculated from data measured at different concentrations.

SMILES | ED50 value
Cn1cc(C(=O)Nc2ccsc2CC[Si](C)(C)C)c(C(F)(F)F)n1 [drawing 100] | <0.05 ppm
C[Si](C)(C)CCc1sccc1NC(=O)c1cccnc1Cl [drawing 103] | <0.05 ppm
Cc1nc(C(F)F)c(C(=O)Nc2ccsc2CC[Si](C)(C)C)s1 [drawing 101] | <0.05 ppm
C[Si](C)(C)CCc1sccc1NC(=O)c1ccccc1C(F)(F)F | <0.05 ppm
Cn1cc(C(=O)Nc2ccsc2CC[Si](C)(C)C)c(C(F)(F)F)c1 [drawing 104] | <0.05 ppm
Cn1cc(C(=O)Nc2ccsc2CC[Si](C)(C)C)c(C(F)F)n1 [drawing 105] | <0.05 ppm
